In patent publication US20240041042A1, “1-(PYRIDYL)-5-AZINYLPYRAZOLE DERIVATIVES, AND THEIR USE FOR CONTROL OF UNDESIRED PLANT GROWTH” (Bayer Aktiengesellschaft, priority 2020, published 2024):
Where two headings read alike, the source gives them in different places.

Assays:
Assay type in all cases: in vivo
[1] = system: Matricaria inodora (MATIN); experiment: Post-emergence herbicidal action against MATIN
Method in brief: (§1)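 Post-emergence greenhouse spray, one-leaf stage, 600 l/ha water plus 0.5% additive; WP or EC formulations; application rates 320 g/ha or lower. Visual % damage vs untreated controls at ~3 weeks.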

[2] = system: Digitaria sanguinalis (DIGSA); experiment: Pre-emergence herbicidal action against DIGSA
Method in brief: (§2)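 Herbicide applied to soil before seedling emergence, at 600 l/ha spray volume with 0.5% additive and rates up to 320 g/ha. Evaluation: visual percentage effect, about 3 weeks later, greenhouse-grown pots compared with untreated ones.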

[3] = system: Alopecurus myosuroides (ALOMY); experiment: Pre-emergence herbicidal action against ALOMY; conditions: 320 g/ha; scored visually after about 3 weeks; 100% = plants have died
Method in brief: as §2

[4] = system: Zea mays (ZEAMX); conditions: crop plant compatibility, 80 g/ha, effect vs untreated controls
Method in brief: (§3)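 Greenhouse crops in sandy loam sprayed post-emergence at the one-leaf stage, 2–3 weeks after sowing, with WP or EC formulations in water plus 0.5% additive at 600 l/ha. Damage rated visually about 3 weeks later versus untreated controls (0% = like control, 100% = dead); suffixes a–c denote different doses.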

[5] = system: Oryza sativa (ORYSA); conditions: crop plant compatibility, effect in comparison to untreated controls
Method in brief: as §3

[6] = system: Zea mays (ZEAMX); conditions: pre-emergence, 80 g/ha, crop plant compatibility, in comparison to untreated controls
Source text: Seeds of monocotyledonous and dicotyledonous weed plants and crop plants are placed in plastic or organic planting pots and covered with soil. The compounds of the invention, formulated in the form of wettable powders (WP) or as emulsion concentrates (EC), are then applied to the surface of the covering soil as aqueous suspension or emulsion with addition of 0.5% additive at a water application rate equivalent to 600 l/ha. After the treatment, the pots are placed in a greenhouse and kept under good growth conditions for the trial plants. After about 3 weeks, the effect of the preparations is scored visually in comparison with untreated controls as percentages. For example, 100% activity=the plants have died, 0% activity=like control plants.
The observed effects on selected crop plants are reported here in comparison to the untreated controls (values in %). The appendices “a” “b” and “c” give differentiation by dosage used with otherwise the same crop plants tested.

[7] = system: Viola tricolor (VIOTR); experiment: Post-emergence herbicidal action against VIOTR
Method in brief: as §1

[8] = system: Polygonum convolvulus (POLCO); experiment: Post-emergence herbicidal action against POLCO
Method in brief: as §1

[9] = system: Amaranthus retroflexus (AMARE); experiment: Pre-emergence herbicidal action against AMARE; conditions: visual scoring after about 3 weeks vs untreated controls
Method in brief: as §2

[10] = system: Verconica persica (VERPE); experiment: Post-emergence herbicidal action against VERPE; conditions: 320 g/ha, VERPE
Method in brief: as §1

[11] = system: Lolium rigidum (LOLRI); experiment: Pre-emergence herbicidal action against LOLRI; conditions: dosage 320 g/ha
Method in brief: as §2

[12] = system: Pharbitis purpurea (PHBPU); experiment: Post-emergence herbicidal action against PHBPU
Method in brief: as §1

[13] = system: Amaranthus retroflexus (AMARE); experiment: Post-emergence herbicidal action against AMARE
Method in brief: as §1

[14] = system: Lolium rigidum (LOLRI); experiment: Post-emergence herbicidal action against LOLRI; conditions: dosage 320 g/ha
Method in brief: as §1

[15] = system: Polygonum convolvulus (POLCO); experiment: Pre-emergence herbicidal action against POLCO; conditions: dosage 320 g/ha
Method in brief: as §2

[16] = system: Digitaria sanguinalis (DIGSA); experiment: Post-emergence herbicidal action against DIGSA; conditions: 320 g/ha, visual rating about 3 weeks after treatment
Method in brief: as §1

[17] = system: Alopecurus myosuroides (ALOMY); experiment: Post-emergence herbicidal action against ALOMY; conditions: 320 g/ha, visual rating about 3 weeks after treatment vs untreated controls (100% = plants have died, 0% = like control plants)
Method in brief: as §1

[18] = system: Avena fatua (AVEFA); experiment: Post-emergence herbicidal action against AVEFA; conditions: 320 g/ha, visual rating about 3 weeks after treatment
Method in brief: as §1

[19] = system: Verconica persica (VERPE); experiment: Pre-emergence herbicidal action against VERPE
Method in brief: as §2

[20] = system: Setaria viridis (SETVI); experiment: Post-emergence herbicidal action against SETVI; conditions: dosage 320 g/ha
Method in brief: as §1

[21] = system: Matricaria inodora (MATIN); experiment: Pre-emergence herbicidal action against MATIN
Method in brief: as §2

[22] = system: Pharbitis purpurea (PHBPU); experiment: Pre-emergence herbicidal action against PHBPU
Method in brief: as §2

[23] = system: Avena fatua (AVEFA); experiment: Pre-emergence herbicidal action against AVEFA; conditions: 320 g/ha, visual scoring after about 3 weeks vs untreated controls
Method in brief: as §2

[24] = system: Setaria viridis (SETVI); experiment: Pre-emergence herbicidal action against SETVI
Method in brief: as §2

[25] = system: Echinochloa crus-galli (ECHCG); experiment: Pre-emergence herbicidal action against ECHCG
Method in brief: as §2

[26] = system: Viola tricolor (VIOTR); experiment: Pre-emergence herbicidal action against VIOTR
Method in brief: as §2

[27] = system: Echinochloa crus-galli (ECHCG); experiment: Post-emergence herbicidal action against ECHCG
Method in brief: as §1

[28] = 320 g/ha, visual rating about 3 weeks after treatment

| Post-emergence action against ZEAMX in % [4] | Post-emergence action against ORYSA in % ([5]; 80 g/ha) | Post-emergence action against ORYSA in % ([5]; 320 g/ha) | Pre-emergence action against ZEAMX in % [6] | Compound | Post-emergence action against MATIN in % ([1]; dosage 320 g/ha) | Pre-emergence action against DIGSA in % ([2]; dosage 320 g/ha) | Pre-emergence action against ALOMY [3] | Post-emergence action against VIOTR in % ([7]; 320 g/ha) | Post-emergence action against POLCO in % ([8]; dosage 320 g/ha) | Pre-emergence action against AMARE in % ([9]; 320 g/ha) | Post-emergence action against VERPE in % [10] | Pre-emergence action against LOLRI in % [11] | Post-emergence action against PHBPU in % ([12]; dosage 80 g/ha) | Post-emergence action against PHBPU in % ([12]; dosage 320 g/ha) | Post-emergence action against AMARE in % [13, 28] | Post-emergence action against DIGSA in % [16] | Pre-emergence action against VERPE in % ([19]; dosage 320 g/ha) | also measured |
| --- | --- | --- | --- | --- | --- | --- | --- | --- | --- | --- | --- | --- | --- | --- | --- | --- | --- | --- |
| 0% | 0% | 0% | 0% | CCOC(=O)COc1nn(-c2ccccn2)c(-c2ccc(Cl)nc2)c1Cl [Example I-241] | 80% | 90% | 80% | 80% | 80% | 90% | 80% | 90% | 80% | 90% | 80% | – | – | Post-emergence action against POLCO in % ([8]; dosage 80 g/ha): 80% |
| 10% | 0% | 20% | 0% | COC(=O)[C@@H](C)Oc1nn(-c2ccccn2)c(-c2ccc(Cl)nc2)c1Cl [Example I-237] | – | 90% | 90% | 80% | 80% | 100% | – | 90% | 80% | 90% | 90% | 90% | – | Post-emergence action against LOLRI in % [14]: 80%; Pre-emergence action against POLCO in % [15]: 80%; Post-emergence action against ALOMY in % [17]: 80%; Post-emergence action against AVEFA in % [18]: 80% |
| 20% | 0% | 0% | 0% | O=C(O)COc1nn(-c2ccccn2)c(-c2ccc(Cl)nc2)c1Br [Example I-235] | – | 90% | – | 80% | 80% | 90% | 80% | – | 80% | 80% | 80% | – | 80% | Post-emergence action against VIOTR in % ([7]; 80 g/ha): 80%; Pre-emergence action against AMARE in % ([9]; 80 g/ha): 80%; Post-emergence action against AMARE in % ([13]; 80 g/ha, visual rating about 3 weeks after treatment vs untreated controls (100% = plants have died, 0% = like control plants)): 80% |
| – | 10% | – | – | O=C(O)COc1nn(-c2nc(F)ccc2F)c(-c2cncc(F)c2)c1Cl [Example I-231] | 80% | 100% | 90% | 80% | – | 90% | 80% | 80% | – | 80% | – | 90% | 80% | Post-emergence action against MATIN in % ([1]; dosage 80 g/ha): 80%; Pre-emergence action against DIGSA in % ([2]; 80 g/ha, visual scoring after about 3 weeks vs untreated controls): 90%; Post-emergence action against SETVI in % [20]: 80%; Pre-emergence action against MATIN in % ([21]; dosage 80 g/ha): 90%; Pre-emergence action against MATIN in % ([21]; dosage 320 g/ha): 90%; Pre-emergence action against PHBPU in % ([22]; dosage 80 g/ha): 90%; Pre-emergence action against PHBPU in % ([22]; dosage 320 g/ha): 90%; Pre-emergence action against AVEFA in % [23]: 90%; Pre-emergence action against SETVI in % ([24]; dosage 80 g/ha): 90%; Pre-emergence action against SETVI in % ([24]; dosage 320 g/ha): 90%; Pre-emergence action against ECHCG in % ([25]; dosage 80 g/ha): 90%; Pre-emergence action against ECHCG in % ([25]; dosage 320 g/ha): 90%; Pre-emergence action against VIOTR in % ([26]; 320 g/ha, Viola tricolor): 100%; Pre-emergence action against VIOTR in % ([26]; dosage 80 g/ha): 100%; Pre-emergence action against VERPE in % ([19]; dosage 80 g/ha): 80%; Post-emergence action against ECHCG in % ([27]; dosage 80 g/ha): 80%; Post-emergence action against ECHCG in % ([27]; dosage 320 g/ha): 90% |
